Experiment [1] relates to Streptococcus mutans JC2 strain. The experiment can be described thus: Suppression of intraoral bacteria growth, absorbance at 595 nm. The class given is cell-based. To be noted: 24 hours after treatment. On the procedure:
A test of suppression of bacterial growth with the polyphosphoric acid obtained according to the above production example was conducted using intraoral bacteria, Streptococcus mutans (S. mutans) and Porphylomonas gingivalis (P gingivalis). The S. mutans JC2 strain was anaerobically cultured at 37° C. using Heart infusion media. For the treated groups, polyphosphoric acid was added to the culture solutions at different concentrations (0%, 0.06%, and 0.5%). For comparison groups, phosphate buffers were added at different concentrations (0%, 0.06%, and 0.5%) to culture solutions. The bacteria were cultured for a maximum of 2 days. […] In the meantime, the P. gingivalis ATCC33277 strain was anaerobically cultured using brain-heart-infusion media at 37° C. for the same time period as employed above by adding polyphosphoric acid at different concentrations (0%, 0.015%, 0.03%, 0.06%, 0.12%, 0.25%, and 0.5%) to culture solutions. Bacterial growth was observed over time by measuring absorbance at 595 nm.

Experiment [2] concerns human neutrophils. The experiment can be described thus: IL-1β production by human neutrophils treated with GMDP and/or polyphosphoric acid (ELISA). It is filed as cell-based. On the procedure:
To confirm the effect of suppressing inflammatory cytokine production with the polyphosphoric acid obtained according to the above production example, an experiment was conducted to observe IL-1β production using human neutrophils. Neutrophils were separated from 25 ml of human blood and then suspended in a Dulbecco's Modified Eagle's Medium. […] Treatment was carried out for maximum of 5 hours at 37° C. […] The IL-1β production amount at each time point was measured using an ELISA Kit.
A general note: ELISA stands for enzyme-linked immunosorbent assay.

The test system of experiment [3] is P. gingivalis ATCC33277 strain. Nature of the experiment: Suppression of intraoral bacteria growth, absorbance at 595 nm. The conditions noted are these: polyphosphoric acid concentration of 0.01%, 48 hours after treatment. The class given is cell-based, Porphylomonas gingivalis. On the procedure: A test of suppression of bacterial growth with the polyphosphoric acid obtained according to the above production example was conducted using intraoral bacteria, Streptococcus mutans (S. mutans) and Porphylomonas gingivalis (P gingivalis). The S. mutans JC2 strain was anaerobically cultured at 37° C. using Heart infusion media. For the treated groups, polyphosphoric acid was added to the culture solutions at different concentrations (0%, 0.06%, and 0.5%). For comparison groups, phosphate buffers were added at different concentrations (0%, 0.06%, and 0.5%) to culture solutions. […] Bacterial growth was observed over time by measuring absorbance at 595 nm.

The test system of experiment [4] is periodontal tissue inflammation. Nature of the experiment: Suppression of periodontal tissue inflammation in rat artificial periodontal pockets (HE staining). It is filed as in vivo, Wister rats. To be noted: approx. 0.1 ml of 1% solution injected into gingival crevice every day for 10 days. On the procedure: Male Wister rats (8-week-old; 10 rats in total) were anesthetized, and then the periosteum of the alveolar part of maxillary first molar tooth was stripped. Portions of approximately 2 mm were eliminated from the buccal alveolar apexes of the maxillary first molar tooth and of the maxillary second molar tooth, using a ½ round bar, thereby forming artificial periodontal pockets (gingival crevices). In the case of the treated group (5 rats), approximately 0.1 ml of 1% polyphosphoric acid solution was injected into each gingival crevice using a syringe. Furthermore, in the case of the comparison group (5 rats), only a 1% phosphate buffer was injected. This injection procedure was carried out every day for 10 days from the day following the operation for the preparation of gingival crevices. Rats that had been treated for a certain time period were euthanized under inhalation anesthesia (ether). The maxilla bones were amputated, and then the tissues were fixed for 1 day by immersion using 10% neutral buffered formalin (pH 7.4). Subsequently, the resultants were subjected to acid demineralization at room temperature for approximately 2 days. After completion of demineralization, the samples were trimmed by excision at the second molar tooth, and then paraffin-embedded with their cut surfaces positioned downward. […]

Experiment [5] deals with inflammation at wound site. Nature of the experiment: Suppression of inflammation at wound site, rat dorsal wound model (HE staining). It is filed as in vivo, Wistar rat. The conditions noted are these: 1% solution locally injected 5 days a week. From the text: The dorsum of each 6-week-old male Wistar rat was shaved under ether anesthesia, and then a 20-mm incision was made along the long axis of the body with a depth reaching to the fascia. Both ends of the center of the wound were stitched to the fascia using a piece of string so as to produce a 5-mm-wide spindle-shaped wound model (FIG. 4). A 1% polyphosphoric acid solution was locally injected 5 days a week into each wound of the rats in the treated group. A 1% phosphate buffer was locally injected 5 days a week into each wound of the rats in the comparison group. The rats were euthanized on days 3 and 7. Tissue located in the area extending from 5 mm to the left of and 5 mm to the right of the wound center was obtained by excising skin on the fascia as shown in FIG. 4. The tissues were subjected to HE staining and then histopathological observance was carried out.

These results are taken from patent publication US20060177517A1, “Antiinflammtory agent and antiinflammatory medical material” (priority 2003, published 2006).

Take `O=P(O)(O)O` [phosphoric acid, reference compound]: the “bacterial growth of S. mutans” value in experiment [1] (phosphoric acid concentration of 0.5%) was “no large changes”.
Consider `CC(=O)NC1C(OC2C(CO)OC(O)C(NC(C)=O)C2OC(C)C(=O)NC(C)C(=O)NC(CCC(=O)O)C(N)=O)OC(CO)C(O)C1O` [GMDP, N-Acetyl-D-Glucosaminyl-β(1-4)-N-acetylmuramyl-L-alanyl-D-isoglutamine, reference compound], for which the IL-1β production amount entry in experiment [2] (30 μg GMDP alone, up to 5 hours) is “increased with time”.
For the compound polyphosphoric acid, the “bacterial growth of S. mutans” value in experiment [1] (polyphosphoric acid concentration of 0.06%) is “significantly suppressed bacterial growth”. Also, in experiment [3], the “bacterial growth of P. gingivalis” value was “significantly suppressed bacterial growth”. Further, the “inflammatory cells in the peripheries of the treated sites” value in experiment [4] is recorded as “Almost no inflammatory cells were observed”. Further, the IL-1β production amount entry in experiment [2] (GMDP plus polyphosphoric acids (0.2, 1, 5 mM), 5 hours after treatment) was “decreased depending on the concentrations of the polyphosphoric acids”. In addition, the IL-1β production amount entry in experiment [2] (GMDP plus polyphosphoric acids (0.2, 1, 5 mM), until 3 hours after treatment, versus GMDP alone) is “suppressed to a level similar to that of the comparison group”. In addition, in experiment [2] (polyphosphoric acids alone (0.2, 1, 5 mM), no GMDP), the IL-1β production amount result is “almost the same at any polyphosphoric acid concentration as that in the case of the comparison group”. Besides, in experiment [5] (day 3 after operation), the “extension of the epithelia toward the centers of the wounds” value is reported as “significant extension” and the “infiltration by inflammatory cells at the wound” value is on record as “infiltration by inflammatory cells decreased”. Besides, in experiment [5] (day 7 after operation), the “epithelialization of the wound surfaces” value was “almost completely epithelialized”; the “extension of the epithelia at the cut ends of the wounds, compared with the comparison group” value is listed as “promoted”; the “inflammation at the centers of the wounds” value was “inflammation remained slight and partial on the upper parts”.
